In paper PMC4129951 (Nature chemical biology, 2010):

What was measured:
[1] = target: T1, LysC; aspartokinase III (Escherichia coli, UniProt P08660); test: in vitro reaction, product confirmed by LC-MS; assay type: biochemical; conditions: product trapped with L-Cys as β-aspartyl cysteine
T1 sequence (P08660 2-449): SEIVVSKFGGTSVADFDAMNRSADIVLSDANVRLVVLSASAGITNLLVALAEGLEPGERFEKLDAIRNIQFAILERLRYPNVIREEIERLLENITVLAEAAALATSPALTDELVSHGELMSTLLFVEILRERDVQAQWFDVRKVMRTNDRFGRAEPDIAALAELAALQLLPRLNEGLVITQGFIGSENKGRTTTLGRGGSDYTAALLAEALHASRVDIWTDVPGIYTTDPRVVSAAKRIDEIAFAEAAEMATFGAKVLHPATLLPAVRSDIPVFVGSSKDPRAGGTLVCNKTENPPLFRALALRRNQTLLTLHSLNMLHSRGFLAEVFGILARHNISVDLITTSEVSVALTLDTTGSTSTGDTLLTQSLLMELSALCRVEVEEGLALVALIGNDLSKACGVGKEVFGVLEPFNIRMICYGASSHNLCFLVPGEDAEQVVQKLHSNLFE

[2] = target: T2, ProA(wt); γ-glutamyl phosphate reductase (Escherichia coli, UniProt P07004); test: NADPH oxidation in coupled assay with ProB; assay type: biochemical; conditions: γ-glutamyl phosphate formed in situ by ProB from L-Glu
T2 sequence (P07004 1-417): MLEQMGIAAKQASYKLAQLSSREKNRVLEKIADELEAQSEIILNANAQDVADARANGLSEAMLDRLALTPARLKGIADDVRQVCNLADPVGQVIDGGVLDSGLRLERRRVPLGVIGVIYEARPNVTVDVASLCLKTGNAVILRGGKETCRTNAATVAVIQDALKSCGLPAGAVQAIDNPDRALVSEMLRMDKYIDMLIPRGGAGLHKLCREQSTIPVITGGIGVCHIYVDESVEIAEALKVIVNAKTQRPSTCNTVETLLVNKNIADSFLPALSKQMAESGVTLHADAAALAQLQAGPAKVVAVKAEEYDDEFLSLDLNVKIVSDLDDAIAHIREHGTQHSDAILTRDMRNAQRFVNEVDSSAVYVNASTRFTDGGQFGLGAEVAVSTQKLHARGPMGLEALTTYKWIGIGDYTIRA

| SMILES | in vitro reaction, product confirmed by LC-MS [1] | NADPH oxidation in coupled assay with ProB [2] |
| --- | --- | --- |
| N[C@@H](CC(=O)O)C(=O)O [L-Asp] | LysC from E. coli was used to convert L-Asp to β-aspartyl phosphate | – |
| NC(=O)C1=CN([C@@H]2O[C@H](COP(=O)(O)OP(=O)(O)OC[C@H]3O[C@@H](n4cnc5c(N)ncnc54)[C@H](OP(=O)(O)O)[C@@H]3O)[C@@H](O)[C@H]2O)C=CC1 [NADPH] | – | A coupled in vitro assay, which measures NADPH oxidation by ProA(wt) |
